± gives the standard deviation of the averaged measurements.
System: HepaRG
Assay: LDH release cytotoxicity, % of total lysis control; higher = more cytotoxic
Conditions: 48 h
Procedure, shortened: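 Single-lot HepaRG cells in collagen I-coated 96-well plates were treated for 48 h in serum-free induction medium containing 0.5% DMSO with test chemicals in eight-point half-log series up to 100 µM. For total lysis, wells received 0.1% Triton X. LDH in 50 µL spent medium was assayed by resorufin fluorescence with CytoTox-ONE. Percent cytotoxicity was normalized to the on-plate vehicle and total lysis controls, with duplicates averaged.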

CCC(C)Nc1c([N+](=O)[O-])cc(C(C)(C)C)cc1[N+](=O)[O-] (configuration not stated) [Butralin]
Conditions	LDH release cytotoxicity [%]
0.031623 µM	-1.24 ± 0.48
0.1 µM	-2.37 ± 1.2
0.316228 µM	-1.26 ± 1
1 µM	-1.89 ± 1.2
3.16228 µM	-2.08 ± 0.85
10 µM	-2.15 ± 1.1
31.6228 µM	-1.93 ± 1.3
100 µM	-1.58 ± 0.34

CCCCCCCCCCCO [1-Undecanol]
Conditions	LDH release cytotoxicity [%]
0.01581 µM	-2.55 ± 0.72
0.05 µM	-3.97 ± 0.19
0.1581139 µM	-3.8 ± 1.3
0.5 µM	-4.64 ± 0.28
1.5811388 µM	-2.84 ± 0.45
5 µM	-3.15 ± 0.031
15.8114 µM	-2.96 ± 1.5
50 µM	4.08 ± 2.9

c1ccc2c(c1)ccc1ccccc12 [Phenanthrene]
Conditions	LDH release cytotoxicity [%]
0.03162 µM	-0.492 ± 0.39
0.1 µM	-0.112 ± 0.47
0.3162278 µM	-1.07 ± 0.35
1 µM	-1.03 ± 0.62
3.16228 µM	-1.55 ± 0.095
10 µM	-0.467 ± 0.087
31.6228 µM	-0.00782 ± 0.7
100 µM	0.23 ± 0.29

Oc1ccc2ccccc2c1 [2-Naphthalenol]
Conditions	LDH release cytotoxicity [%]
0.03162 µM	-0.471 ± 0.51
0.1 µM	-0.55 ± 0.25
0.3162278 µM	-0.787 ± 0.15
1 µM	-0.57 ± 0.2
3.16228 µM	-0.679 ± 0.39
10 µM	-0.106 ± 0.093
31.6228 µM	0.851 ± 0.3
100 µM	13.8 ± 0.73

COc1c(Cl)ccc(Cl)c1C(=O)O [Dicamba]
Conditions	LDH release cytotoxicity [%]
0.03162 µM	-2.43 ± 1.4
0.1 µM	-1.52 ± 0.043
0.3162278 µM	-0.804 ± 0.36
1 µM	-2.09 ± 0.64
3.16228 µM	-0.996 ± 0.75
10 µM	-0.906 ± 0.014
31.6228 µM	-0.688 ± 0.24
100 µM	0.691 ± 0.52

CCC(=CC(N=O)C(N)=O)C(C)[N+](=O)[O-] (configuration not stated)
Conditions	LDH release cytotoxicity [%]
0.03162 µM	-0.841 ± 0.13
0.1 µM	-1.13 ± 0.46
0.3162278 µM	-0.143 ± 1
1 µM	-0.487 ± 0.72
3.16228 µM	-0.165 ± 0.14
10 µM	0.0592 ± 0.5
31.6228 µM	0.411 ± 0.23
100 µM	1.12 ± 0.8

O=C(Nc1ccccc1)c1ccccc1I [Benodanil]
Conditions	LDH release cytotoxicity [%]
0.03162 µM	-1.25 ± 0.85
0.1 µM	-1.19 ± 1.3
0.3162278 µM	-1.59 ± 0.61
1 µM	-2.02 ± 0.61
3.16228 µM	-0.274 ± 0.0083
10 µM	1.86 ± 0.57
31.6228 µM	5.86 ± 1.2
100 µM	12.4 ± 0.34

O=C(Nc1ccc2[nH]ccc2c1)c1cc2cc(F)ccc2n1Cc1cccc(F)c1
Conditions	LDH release cytotoxicity [%]
0.02625 µM	-0.0757 ± 2.2
0.083 µM	-0.934 ± 1.2
0.262469 µM	-1.53 ± 0.6
0.83 µM	-0.536 ± 0.036
2.62469 µM	-0.9 ± 0.47
8.3 µM	-0.744 ± 0.035
26.2469 µM	8.37 ± 1.7
83 µM	93.9 ± 2.4

CCOP(=O)(OCC)Oc1nc(Cl)c(Cl)cc1Cl [Chlorpyrifos oxon]
Conditions	LDH release cytotoxicity [%]
0.03162 µM	-1.8 ± 0.21
0.1 µM	-1.33 ± 0.45
0.3162278 µM	-1.43 ± 0.73
1 µM	-1.55 ± 0.93
3.16228 µM	-0.451 ± 0.67
10 µM	0.221 ± 0.3
31.6228 µM	0.828 ± 0.99
100 µM	2.9 ± 1.2

CCOC(=O)COc1cc(-n2ncc(C(F)(F)F)c(C)c2=O)c(F)cc1Cl [Flufenpyr-ethyl]
Conditions	LDH release cytotoxicity [%]
0.03162 µM	-1.89 ± 1.7
0.1 µM	-1.45 ± 0.22
0.3162278 µM	-1.14 ± 0.024
1 µM	-1.34 ± 0.57
3.16228 µM	-1.22 ± 0.67
10 µM	-0.592 ± 0.22
31.6228 µM	-0.509 ± 1.1
100 µM	0.726 ± 0.9

N#Cc1c[nH]cc1-c1cccc2c1OC(F)(F)O2 [Fludioxonil]
Conditions	LDH release cytotoxicity [%]
0.03162 µM	-1.45 ± 1
0.1 µM	-1.69 ± 0.5
0.3162278 µM	-1.72 ± 0.45
1 µM	-1.04 ± 0.23
3.16228 µM	0.437 ± 0.076
10 µM	0.919 ± 0.9
31.6228 µM	3.74 ± 0.92
100 µM	9.41 ± 1.2

Cc1c(F)c(F)c(COC(=O)C2C(C=C(Cl)C(F)(F)F)C2(C)C)c(F)c1F (configuration not stated) [Tefluthrin]
Conditions	LDH release cytotoxicity [%]
0.03162 µM	-0.665 ± 0.058
0.1 µM	-0.785 ± 0.14
0.3162278 µM	-1.49 ± 0.56
1 µM	-1.6 ± 0.5
3.16228 µM	-1.72 ± 0.74
10 µM	-0.97 ± 0.31
31.6228 µM	-0.478 ± 0.69
100 µM	-0.883 ± 1

COc1cc(C(=O)NC2CCN(C)CC2)ccc1Nc1ncc2c(n1)N(C1CCCC1)CC(F)(F)C(=O)N2C
Conditions	LDH release cytotoxicity [%]
0.02941 µM	-0.558 ± 1.5
0.093 µM	1.88 ± 0.43
0.294092 µM	6.47 ± 1.2
0.93 µM	10.3 ± 0.45
2.9409182 µM	9.21 ± 3.6
9.3 µM	12.6 ± 0.61
29.4092 µM	88.1 ± 6.3
93 µM	90.9 ± 9.2

CCOc1ccc2c(c1)C(C)=CC(C)(C)N2 [Ethoxyquin]
Conditions	LDH release cytotoxicity [%]
0.03162 µM	-1.26 ± 0.72
0.1 µM	-0.577 ± 0.97
0.3162278 µM	-1.06 ± 0.6
1 µM	-1.45 ± 1.1
3.16228 µM	-1.65 ± 0.13
10 µM	-1.77 ± 0.58
31.6228 µM	-1.67 ± 0.43
100 µM	-0.112 ± 2.2

CS(=O)(=O)c1ccc(C(CC2CCC(=O)C2)C(=O)Nc2cnccn2)cc1Cl (configuration not stated) [Piragliatin]
Conditions	LDH release cytotoxicity [%]
0.03162 µM	-0.668 ± 0.37
0.1 µM	-1.54 ± 1.1
0.3162278 µM	-0.661 ± 0.31
1 µM	-1.64 ± 1
3.16228 µM	-1.28 ± 0.2
10 µM	-0.831 ± 0.26
31.6228 µM	-1.24 ± 0.96
100 µM	-0.692 ± 0.1

COCCOCC(CC1(C(=O)NC2CCC(C(=O)O)CC2)CCCC1)C(=O)Oc1ccc2c(c1)CCC2 (configuration not stated) [Candoxatril]
Conditions	LDH release cytotoxicity [%]
0.03162 µM	-0.831 ± 0.098
0.1 µM	-1.91 ± 0.43
0.3162278 µM	-0.642 ± 0.1
1 µM	-1.61 ± 0.11
3.16228 µM	-1.03 ± 0.12
10 µM	-0.79 ± 0.29
31.6228 µM	-0.798 ± 0.39
100 µM	0.54 ± 0.26

CCCCCCC(C)OC(=O)COc1nc(F)c(Cl)c(N)c1Cl (configuration not stated) [Fluroxypyr-meptyl]
Conditions	LDH release cytotoxicity [%]
0.031623 µM	1.23 ± 0.18
0.1 µM	-0.123 ± 1.8
0.316228 µM	0.191 ± 1
1 µM	-0.348 ± 1.1
3.16228 µM	-7.7 ± 0.78
10 µM	8.36 ± 3.8
31.6228 µM	-0.641 ± 0.61
100 µM	-0.963 ± 0.71

CCCCOC(=O)C(C)Oc1ccc(Oc2ccc(C#N)cc2F)cc1 (configuration not stated) [Cyhalofop-butyl]
Conditions	LDH release cytotoxicity [%]
0.0314647 µM	-1.16 ± 0.16
0.0995 µM	-1.07 ± 0.88
0.3146466 µM	-0.775 ± 0.25
0.995 µM	-1.29 ± 0.31
3.14647 µM	-0.485 ± 0.35
9.95 µM	0.552 ± 1.1
31.4647 µM	-0.564 ± 0.059
99.5 µM	0.894 ± 1

CCCCCCOC(=O)CC(CC(=O)OCCCCCC)(OC(=O)CCC)C(=O)OCCCCCC [Butyryl-n-trihexylcitrate]
Conditions	LDH release cytotoxicity [%]
0.03162 µM	-0.556 ± 0.23
0.1 µM	-0.753 ± 0.66
0.3162278 µM	-0.622 ± 0.2
1 µM	-0.825 ± 0.23
3.16228 µM	-0.796 ± 0.43
10 µM	-0.597 ± 0.75
31.6228 µM	-0.0452 ± 0.87
100 µM	0.5774 ± 0.0031
